Reference: patent US20240376433A1, “STEM CELL INDUCTION INTO PRECHONDROCYTES AND DIFFERENTIATION INTO CHONDROCYTES BY CIPROFLOXACIN” (SMART CELL LAB CO., LTD., priority 2021, published 2024)

Key:
stem cells [1] = test: Induction of differentiation of stem cells into chondrocytes (2D), Alcian blue staining; type: cell-based; details: 2D culture, induced to differentiate for 16 days
Protocol: Stem cells (collected from tissue donated by a hospital for non-profit patient treatment) were cultured by attaching 80% or more of the stem cells to a Dulbecco's modified Eagle's medium (DMEM) or a-MEM containing 1 to 10% FBS. Thereafter, the cells were collected using Trypsin-EDTA, counted, seeded at 1×10^3 cells/well in a 96-well plate, and attached to the plate for 24 hours. […] Thereafter, the stem cells induced to differentiate for 16 days were washed with DPBS and fixed with 4% paraformaldehyde for 1 hour. The completely fixed cells were stained using an Alcian blue solution (Merck, B8438) for 1 hour to 1 day. Thereafter, the cells were washed once with 1 N HCl, and then further washed three times with sterile distilled water. Finally, the washed sample was observed under a microscope.

stem cells [2] = test: Induction of differentiation of stem cells into chondrocytes (3D), Alcian blue staining; type: cell-based; details: 3D culture, 0.1 to 6 μM ciprofloxacin, 16 days
Protocol: Stem cells (collected from tissue donated by a hospital for non-profit patient treatment) were cultured by attaching 80% or more of the stem cells to a Dulbecco's modified Eagle's medium (DMEM) or a-MEM containing 1 to 10% FBS. Thereafter, the cells were collected and counted using Trypsin-EDTA, and 5×10^5 cells were inoculated into a 15 ml conical tube. A medium containing 0.1 to 6 μM ciprofloxacin was centrifuged to settle the cells at 150 g using a centrifuge (Hanil Science Co., Ltd., Combi415). The cells were cultured in a 5% CO2 incubator at 37° C. while exchanging the medium every 2 to 3 days. The stem cells induced to differentiate for 16 days were washed with DPBS and fixed with 4% paraformaldehyde for 1 hour. The completely fixed cells were stained using an Alcian blue solution (Merck, B8438) for 1 hour to 24 hours. Thereafter, the cells were washed once with 1 N HCl, and then further washed three times with sterile distilled water. Finally, the washed sample was observed.

stem cells [3] = details: stem cells cultured in medium with ciprofloxacin
Protocol: Stem cells (collected from tissue donated by a hospital for non-profit patient treatment) were cultured by attaching 80% or more of the stem cells to a Dulbecco's modified Eagle's medium (DMEM) or a-MEM containing 1 to 10% FBS.
Thereafter, the cells were collected using Trypsin-EDTA, counted, seeded at 1×10^3 cells/well in a 96-well plate, and attached to the plate for 24 hours. Thereafter, ciprofloxacin (Samsung Pharmaceutical, ciprofloxacin injection) was administered according to the concentration, and then cytotoxicity was confirmed for a specific time (up to 166 hours). Next, each well was treated with Cell Counting Kit-8 (hereinafter referred to as CCK, DOJINDO, Cat. No. CK04-13) at 10 μl/well, and then cultured at 37° C. in a 5% CO2 incubator for 1 hour.
The absorbance was measured using an absorbance meter (Bio-Tek, Epoch2) and quantitatively calculated.

SMILES: O=C(O)c1cn(C2CC2)c2cc(N3CCNCC3)c(F)cc2c1=O [ciprofloxacin]
- differentiation into chondrocytes, Alcian blue staining (2D) (stem cells [1]): Alcian blue staining, which appears depending on SOX9, was present throughout the chondrocytes
- differentiation into chondrocytes, Alcian blue staining (3D) (stem cells [2]): Alcian blue staining, which appears depending on SOX9, was present throughout the chondrocytes
- cell viability compared to a control (CONT) (stem cells [3]): a significant difference in cell viability was not exhibited
